The values that follow come from patent publication US20200315950A1, “COMPOSITION FOR MODULATING THE GENES RESPONSIBLE FOR GENERAL SKIN FUNCTIONS, METHOD FOR MODULATING THE EXPRESSION OF GENES RESPONSIBLE FOR GENERAL SKIN FUNCTIONS, AND USE OF A PLANT EXTRACT” (Natura Cosmeticos S.A., priority 2016, published 2020).

In the assay the test system is 180 genes in skin explants. Nature of the assay: Large scale gene expression profile assay (PCR array) in skin explants. It is filed as cell-based, human. The settings on record: eyelid skin explants, 2 mg/cm^2 topical, 24 hours, threshold 30% increase or reduction. The protocol: A large scale gene expression profile assay (by PCR array) was performed of 180 genes in skin explants obtained subsequent to blepharoplasty and subjected to individual treatments with the present invention.
Initially, skin explants were obtained from the eyelids of females between 45 and 55 years of age, three (3) different donors of each age. The explants were split into halves and immediately inserted, in triplicate from each donor, into a culture medium and kept for 24 hours (half 1) and 72 hours (half 2) in a wet environment, at 37° C., 5% CO2. […]
Half (1) was collected and subjected to total RNA extraction. The quality of the extracted RNA was qualitatively (Bioanalyzer microcapillary electrophoresis) and quantitatively (Nanodrop spectrophotometer) assessed. […] The ΔCt values for the GAPDH (glyceraldehyde-3-phosphate dehydrogenase) reference gene and target gene were calculated by subtracting from each other the values for the experimental groups. […] Lastly, a relative quantification of the target genes was determined by using the equation: RQ=2−ΔΔCt. […] The statistical significance was assessed by using the t test followed by the Benjamini-Hochberg method (FDR—false discovery rate), which p-value<0.05 was considered significant. […]

Where “and” joins values, the source holds several entries; their conditions need not be identical. Identical values can stand only once.

On to `C/C=C/C=C\CC/C=C/C(=O)NCC(C)C` [spilanthol sample, spilanthol], for which the “number of genes modulated as compared to the untreated control” value amounted to 163 genes.
As for “hyaluronic acid [Hyaluronic Acid sample]”, the figure is 162 genes and 146 genes.
